Reference: US4530998A, “2'-Deoxyoxanosine” (Zaidan Hojin Biseibutsu Kagaku KenkyuKai, priority 1983, dated 1985)
Converted amounts (≈) assume the structure as drawn.

What was measured:
[1] = test system: leukemia L-1210 cells; test: Cytotoxicity, growth inhibition of leukemia L-1210 cells; type: cell-based
[2] = Acute toxicity (LD50) in mice; type: in vivo; conditions: mouse, in vivo, iv
[3] = test system: mice; test: Acute toxicity (LD50) in mice; type: in vivo; conditions: i.v., in words
[4] = test system: gram-positive bacteria; test: Antibacterial (growth-inhibitory) activity, gram-positive bacteria; type: cell-based; conditions: in words
From the text: (§1) Calcd.: C:44.91, H:4.47, N:20.75, Found: C:44.78, H:4.51, N:20.89, Molecular formula: C10 H12 N4 O5 Molecular weight: 268. 2'-Deoxyoxanosine in accordance with the present invention had the following antibacterial spectrum on 0.5% peptone agar.

[5] = Stability under basic conditions; type: physicochemical; conditions: in words
[6] = test system: gram-negative bacteria; test: Antibacterial (growth-inhibitory) activity, gram-negative bacteria; type: cell-based; conditions: in words
From the text: as §1

[7] = test system: Corynebacterium bovis 1810; test: Antibacterial spectrum (MIC) on 0.5% peptone agar; type: cell-based
From the text: as §1
(§2) Antibacterial spectrum of 2'-deoxyoxanosine

[8] = test system: Escherichia coli NIHJ; test: Antibacterial spectrum (MIC) on 0.5% peptone agar; type: cell-based
From the text: as §1, §2

[9] = test system: Salmonella typhi T-63; test: Antibacterial spectrum (MIC) on 0.5% peptone agar; type: cell-based; conditions: Salmonella enterica
From the text: as §1, §2

[10] = test system: Proteus rettgeri GN311; test: Antibacterial spectrum (MIC) on 0.5% peptone agar; type: cell-based; conditions: Providencia rettgeri
From the text: as §1, §2

[11] = test system: Shigella flexneri 4bJS11811; test: Antibacterial spectrum (MIC) on 0.5% peptone agar; type: cell-based
From the text: as §1, §2

[12] = test system: Salmonella enteritidis 1891; test: Antibacterial spectrum (MIC) on 0.5% peptone agar; type: cell-based; conditions: Salmonella enterica
From the text: as §1, §2

[13] = test system: Bacillus subtilis NRRLB-558; test: Antibacterial spectrum (MIC) on 0.5% peptone agar; type: cell-based; conditions: NRRLB558
From the text: as §1, §2

[14] = test system: Bacillus subtilis PCI219; test: Antibacterial spectrum (MIC) on 0.5% peptone agar; type: cell-based
From the text: as §1, §2

[15] = test system: Proteus mirabilis IFM OM-9; test: Antibacterial spectrum (MIC) on 0.5% peptone agar; type: cell-based; conditions: IFMOM9
From the text: as §1, §2

[16] = test system: Shigella dysenteriae JS11910; test: Antibacterial spectrum (MIC) on 0.5% peptone agar; type: cell-based
From the text: as §1, §2

[17] = test system: Sarcina luteus PCI1001; test: Antibacterial spectrum (MIC) on 0.5% peptone agar; type: cell-based
From the text: as §1, §2

[18] = test system: Escherichia coli ML1628; test: Antibacterial spectrum (MIC) on 0.5% peptone agar; type: cell-based; conditions: Escherichia coli ML1628 (multiple resistant strain)
From the text: as §1, §2

[19] = test system: Shigella sonnei JS11746; test: Antibacterial spectrum (MIC) on 0.5% peptone agar; type: cell-based
From the text: as §1, §2

[20] = test system: Pseudomonas aeruginosa A3; test: Antibacterial spectrum (MIC) on 0.5% peptone agar; type: cell-based
From the text: as §1, §2

[21] = test system: Staphylococcus aureus Simth; test: Antibacterial spectrum (MIC) on 0.5% peptone agar; type: cell-based
From the text: as §1, §2

[22] = test system: Mycobacterium 607; test: Antibacterial spectrum (MIC) on 0.5% peptone agar; type: cell-based
From the text: as §1, §2

[23] = test system: Staphylococcus aureus FDA209P; test: Antibacterial spectrum (MIC) on 0.5% peptone agar; type: cell-based
From the text: as §1, §2

[24] = test system: Escherichia coli K-12; test: Antibacterial spectrum (MIC) on 0.5% peptone agar; type: cell-based; conditions: K12
From the text: as §1, §2

[25] = test system: Proteus rettgeri GN466; test: Antibacterial spectrum (MIC) on 0.5% peptone agar; type: cell-based; conditions: Providencia rettgeri
From the text: as §1, §2

[26] = test system: Microcuccus flavus FDA16; test: Antibacterial spectrum (MIC) on 0.5% peptone agar; type: cell-based
From the text: as §1, §2

[27] = test system: Klebsiella pneumoniae PCI602; test: Antibacterial spectrum (MIC) on 0.5% peptone agar; type: cell-based
From the text: as §1, §2

[28] = test system: Proteus vulgaris OX19; test: Antibacterial spectrum (MIC) on 0.5% peptone agar; type: cell-based
From the text: as §1, §2

[29] = test system: Candida albicans 3147; test: Antibacterial spectrum (MIC) on 0.5% peptone agar; type: cell-based
From the text: as §1, §2

[30] = test system: Serratia marcescens; test: Antibacterial spectrum (MIC) on 0.5% peptone agar; type: cell-based
From the text: as §1, §2

Compound: Nc1nc2c(ncn2[C@H]2C[C@H](O)[C@@H](CO)O2)c(=O)o1 [2'-deoxyoxanosine]
- IC50 ([1]; Mus musculus, L1210, read-out: IC50, the concentration inhibiting growth in 50% of leukemia L-1210 cells): 0.15 µg/mL (≈ 0.559 µM)
- inhibition of growth of leukemia L-1210 cells ([1]; in words): exhibited the action to inhibit the growth of leukemia L-1210 cells
- LD50 [2]: 200 mg/kg
- acute toxicity compared with known antibiotics similar in structure to nucleic acids [3]: lower toxicity than that of various known antibiotics similar in structure to nucleic acids
- growth-inhibitory activity [4]: did not show this activity against gram-positive bacteria
- stability [5]: relatively unstable under basic conditions
- antibacterial / growth-inhibitory activity [6]: relatively high growth-inhibitory activity
- antibacterial / growth-inhibitory activity ([6]; listed as 2'-Deoxyoxanosine): excellent antibacterial activity against gram-negative bacteria
- MIC [7]: > 100 µg/mL
- MIC [8]: 12.5 µg/mL (≈ 46.6 µM)
- MIC [9]: > 100 µg/mL
- MIC [10]: 12.5 µg/mL (≈ 46.6 µM)
- MIC [11]: 1.56 µg/mL (≈ 5.82 µM)
- MIC [12]: > 100 µg/mL
- MIC [13]: > 100 µg/mL
- MIC [14]: > 100 µg/mL
- MIC [15]: 6.25 µg/mL (≈ 23.3 µM)
- MIC [16]: 1.56 µg/mL (≈ 5.82 µM)
- MIC [17]: > 100 µg/mL
- MIC [18]: 3.12 µg/mL (≈ 11.6 µM)
- MIC [19]: 0.78 µg/mL (≈ 2.91 µM)
- MIC [20]: > 100 µg/mL
- MIC [21]: > 100 µg/mL
- MIC [22]: > 100 µg/mL
- MIC [23]: > 100 µg/mL
- MIC [24]: 0.78 µg/mL (≈ 2.91 µM)
- MIC [25]: 25 µg/mL (≈ 93.2 µM)
- MIC [26]: > 100 µg/mL
- MIC [27]: > 100 µg/mL
- MIC [28]: < 0.2 µg/mL
- MIC [29]: > 100 µg/mL
- MIC [30]: > 100 µg/mL
